Assay results published in patent US20110098296A1, “Thiazole And Oxazole Kinase Inhibitors” (priority 2007, published 2011).

Key:
HT-29 tumor cells = assay: Method C: Cell Growth Inhibition Assay (CellTiter-Glo), HT-29; format: cell-based; details: Homo sapiens, HT-29, 72 h, 3 days, 4-parameter fit
Method: (§1) Human breast tumor cells (BT474) were cultured in RPMI (Mediatech 50-011-PB), containing 10% FBS (JRH Biosciences 12176) and 1% penicillin-streptomycin (Invitrogen 15140). Human head and neck tumor cells (HN5) were cultured in high glucose DMEM (Mediatech 50-013-PB) containing 10% FBS and 1% penicillin-streptomycin. Human colon tumor cells (Colo205) were cultured in RPMI (Mediatech 50-020-PB) containing 10% FBS and 1% penicillin-streptomycin. Human melanoma cancer cells (SK-MEL-28) were cultured in EMEM with nonessential amino acids (Mediatech 50-011-PB) containing 10% FBS, 1% sodium pyruvate (JT Baker 3354-04), and 1% penicillin-streptomycin. Human melanoma cancer cells (A375P F11s) were cultured in RPMI (Mediatech 50-020-PB) containing 10% FBS, 1% sodium pyruvate, and 1% penicillin-streptomycin. Human colon cancer cells (HT-29) were cultured in high glucose DMEM (Mediatech 50-013-PB) containing 10% FBS and 1% penicillin-streptomycin. Human melanoma cancer cells (SK-MEL-3) were cultured in McCoy's 5A (50-025-PB) containing 15% FBS, and 1% penicillin-streptomycin. All cell lines were maintained at 37° C. in a humidified 5% CO2, 95% air incubator. Cells were harvested using trypsin/EDTA (Invitrogen 25200), counted using an haemocytometer, and plated. For 96-well assays (using white full-area NUNC plates cat. #136102), cells were plated in 105 μL at the following densities (cells/well): HN5, 500; Colo205, 500; SK-MEL-28, 500; A375P-F11s, 500; HT-29, 500; SK-MEL-3, 500; and BT474, 3000. For 384-well assays (white full-area NUNC plates, cat. #781080), cells were plated in 48 μL at the following densities (cells/well): HN5, 500; Colo205, 500; SK-MEL-28, 500; A375P-F11s, 500; HT29, 500; SK-MEL-3, 500; and BT474, 2000.
(§2) The next day, compounds were diluted as follow: For 96-well assays, 13.5 μL of compound in DMSO were diluted using nine (9) serial 1:3 dilutions of 4.5 μL in 9 μL of DMSO. Medium (270 μl/well of RPMI with 10% FBS and 1% penicillin-streptomycin) was added to the plates. Aliquots (7 μl) were added to cells in the final assay giving a final DMSO concentration of 0.2%. For 384-well assays, 15 μL of compound in DMSO were diluted using nine (9) serial 1:3 dilutions of 5 μL in 10 μL of DMSO, followed by a further dilution of 5 μL of compound with 95 μL of medium, of which 2 μL were added to cells in the final assay giving a final DMSO concentration of 0.2%. Cells were incubated at 37° C., 5% CO2 for 3 days.
(§3) Total ATP was measured (as a surrogate estimate of cell number) using CellTiter-Glo® reagent (Promega G7571). Briefly, plates were removed from the incubator and allowed to equilibrate to room temperature for 30 minutes. CellTiter-Glo® (25 μL or 55 μL for 384-well or 96-well assays, respectively) reagent was added to each well and plates were shaken on an orbital plate shaker for 2 mins. Plates were incubated without shaking for a further 30 mins and read on an LJL Analyst GT reader in luminometer mode with an integration time of 0.5 seconds per well. Percent inhibition of cell growth was calculated relative to DMSO vehicle-treated control wells. Concentration of compound required to give 50% inhibition of vehicle-treated control cell growth (IC50) was interpolated using a 4-parameter fit for determining IC50 using the following equation: Y=A+((B−A)/(1+((C/X)̂D))) where X=IC50.

Colo205 tumor cells = assay: Method C: Cell Growth Inhibition Assay (CellTiter-Glo), Colo205; format: cell-based; details: Homo sapiens, COLO 205, 72 h, 3 days, 4-parameter fit
How it was run: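 Growth inhibition is expressed as the concentration giving 50% inhibition relative to vehicle controls, derived from a 4-parameter fit. Tumor cells plated at 500 per well were exposed for 3 days to compound (0.2% DMSO) before total ATP was quantified by CellTiter-Glo.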

A375P F11s tumor cells = assay: Method C: Cell Growth Inhibition Assay (CellTiter-Glo), A375P F11s; format: cell-based; details: Homo sapiens, 72 h, 3 days, 4-parameter fit
Method: as §1, §2, §3

EGFR = target: T1, EGFR (Homo sapiens, UniProt P00533); assay: EGFR substrate phosphorylation assay (HTRF); format: biochemical; details: Method (A): Enzyme Mix incubated with compound at 20° C. for 1 hr, reaction started by adding Substrate Mix
T1 construct: made in house; host or cells: baculovirus expression system
How it was run: (§4)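 Baculovirus-expressed kinase (0.8 nM EGFR or 10 nM ErbB2 in enzyme mix) with Peptide C 0.8 μM and ATP 20 μM (substrate-mix levels), MOPS pH 7.5, MnCl2; 90 min, 20 °C, HTRF anti-phosphotyrosine. Method A adds 1 h enzyme–compound preincubation; B none. pIC50, final compound 0.00027–47.6 μM.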

ErbB2 = target: T2, ErbB2 (Homo sapiens, UniProt P04626); assay: ErbB-2 substrate phosphorylation assay (HTRF); format: biochemical; details: Method (A): Enzyme Mix incubated with compound at 20° C. for 1 hr, reaction started by adding Substrate Mix
T2 construct: made in house; host or cells: baculovirus expression system
How it was run: as §4

BT474 tumor cells = assay: Method C: Cell Growth Inhibition Assay (CellTiter-Glo), BT474; format: cell-based; details: Homo sapiens, BT-474, 72 h, 3 days, 4-parameter fit
SK-MEL-28 tumor cells = assay: Method C: Cell Growth Inhibition Assay (CellTiter-Glo), SK-MEL-28; format: cell-based; details: Homo sapiens, SK-MEL-28, 72 h, 3 days, 4-parameter fit
How it was run: (§5)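 HT-29 and HN5 were grown in high-glucose DMEM with 10% FBS, SK-MEL-28 in EMEM with nonessential amino acids, sodium pyruvate and 10% FBS, and A375P F11s in RPMI with 10% FBS and sodium pyruvate. Cells (500/well) received 1:3 compound dilutions for 3 days, with CellTiter-Glo readout and 4-parameter IC50.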

SK-MEL-3 tumor cells = assay: Method C: Cell Growth Inhibition Assay (CellTiter-Glo), SK-MEL-3; format: cell-based; details: Homo sapiens, SK-MEL3, 72 h, 3 days, 4-parameter fit
Method: as §1, §2, §3

HN5 tumor cells = assay: Method C: Cell Growth Inhibition Assay (CellTiter-Glo), HN5; format: cell-based; details: Homo sapiens, 72 h, 3 days, 4-parameter fit
How it was run: as §5

T2 sequence (P04626 23-1255): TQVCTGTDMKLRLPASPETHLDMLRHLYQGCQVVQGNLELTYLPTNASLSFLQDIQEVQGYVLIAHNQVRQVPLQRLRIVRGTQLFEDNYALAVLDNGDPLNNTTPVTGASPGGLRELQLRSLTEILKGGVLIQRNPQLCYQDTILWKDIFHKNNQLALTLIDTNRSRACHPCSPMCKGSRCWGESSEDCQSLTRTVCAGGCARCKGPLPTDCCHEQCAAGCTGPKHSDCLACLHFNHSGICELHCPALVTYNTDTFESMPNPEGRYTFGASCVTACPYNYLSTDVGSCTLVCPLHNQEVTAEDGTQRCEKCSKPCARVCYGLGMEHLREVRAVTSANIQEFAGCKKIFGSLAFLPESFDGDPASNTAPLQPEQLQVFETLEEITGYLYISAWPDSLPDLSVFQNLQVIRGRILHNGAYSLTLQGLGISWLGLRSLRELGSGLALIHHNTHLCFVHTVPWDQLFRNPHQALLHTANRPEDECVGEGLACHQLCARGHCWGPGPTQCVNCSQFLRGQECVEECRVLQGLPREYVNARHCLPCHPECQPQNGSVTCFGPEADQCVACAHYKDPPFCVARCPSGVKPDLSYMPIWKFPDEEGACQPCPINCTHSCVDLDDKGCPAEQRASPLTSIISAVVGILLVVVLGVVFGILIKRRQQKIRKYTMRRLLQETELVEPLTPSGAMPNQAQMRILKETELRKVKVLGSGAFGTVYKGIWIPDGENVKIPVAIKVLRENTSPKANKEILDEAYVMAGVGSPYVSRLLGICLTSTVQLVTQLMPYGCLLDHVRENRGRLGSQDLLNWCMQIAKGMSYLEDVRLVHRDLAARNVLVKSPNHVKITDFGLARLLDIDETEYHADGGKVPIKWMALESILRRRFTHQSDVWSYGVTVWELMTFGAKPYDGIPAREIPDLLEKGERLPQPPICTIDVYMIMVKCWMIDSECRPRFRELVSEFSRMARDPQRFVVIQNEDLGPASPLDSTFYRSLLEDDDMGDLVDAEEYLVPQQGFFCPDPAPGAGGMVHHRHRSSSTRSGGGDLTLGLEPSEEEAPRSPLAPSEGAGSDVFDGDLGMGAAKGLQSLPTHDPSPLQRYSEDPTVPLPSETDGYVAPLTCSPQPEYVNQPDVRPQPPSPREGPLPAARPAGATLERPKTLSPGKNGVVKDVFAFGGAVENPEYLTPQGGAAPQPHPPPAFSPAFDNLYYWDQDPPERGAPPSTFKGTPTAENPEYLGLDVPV
T1 sequence (P00533 25-1210): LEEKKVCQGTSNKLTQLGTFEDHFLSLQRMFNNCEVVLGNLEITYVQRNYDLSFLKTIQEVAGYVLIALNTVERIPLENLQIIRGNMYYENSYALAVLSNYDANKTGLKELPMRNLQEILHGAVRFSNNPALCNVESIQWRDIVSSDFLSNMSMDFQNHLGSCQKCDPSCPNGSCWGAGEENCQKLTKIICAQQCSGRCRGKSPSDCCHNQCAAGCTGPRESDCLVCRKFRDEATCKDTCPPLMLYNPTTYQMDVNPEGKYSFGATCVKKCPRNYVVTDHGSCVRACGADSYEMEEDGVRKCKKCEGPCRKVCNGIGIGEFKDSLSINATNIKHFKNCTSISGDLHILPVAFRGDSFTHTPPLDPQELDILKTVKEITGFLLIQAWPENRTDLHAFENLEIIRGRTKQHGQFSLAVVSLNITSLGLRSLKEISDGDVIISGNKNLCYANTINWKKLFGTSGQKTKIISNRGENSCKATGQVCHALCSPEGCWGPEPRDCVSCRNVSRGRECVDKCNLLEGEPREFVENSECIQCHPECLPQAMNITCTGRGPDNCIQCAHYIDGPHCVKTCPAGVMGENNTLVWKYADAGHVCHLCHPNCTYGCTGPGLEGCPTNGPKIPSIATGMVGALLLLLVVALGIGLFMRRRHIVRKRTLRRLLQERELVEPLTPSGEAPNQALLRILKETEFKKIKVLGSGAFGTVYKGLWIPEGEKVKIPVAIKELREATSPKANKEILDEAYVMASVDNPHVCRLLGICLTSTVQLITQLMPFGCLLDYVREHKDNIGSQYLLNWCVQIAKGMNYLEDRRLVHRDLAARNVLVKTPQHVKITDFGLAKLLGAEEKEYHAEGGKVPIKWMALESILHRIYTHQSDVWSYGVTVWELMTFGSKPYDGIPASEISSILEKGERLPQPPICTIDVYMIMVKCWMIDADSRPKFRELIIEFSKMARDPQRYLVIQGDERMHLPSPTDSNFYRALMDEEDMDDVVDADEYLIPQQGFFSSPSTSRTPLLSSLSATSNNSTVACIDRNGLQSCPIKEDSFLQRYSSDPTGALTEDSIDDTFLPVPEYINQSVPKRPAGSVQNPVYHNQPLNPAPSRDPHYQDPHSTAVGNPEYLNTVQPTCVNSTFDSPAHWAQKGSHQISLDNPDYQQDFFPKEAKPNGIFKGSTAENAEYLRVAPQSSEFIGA

Row | SMILES | IC50 (HT-29 tumor cells) [µM] | IC50 (Colo205 tumor cells) [µM] | IC50 (A375P F11s tumor cells) [µM] | IC50 (EGFR) [µM] | IC50 (ErbB2) [µM] | IC50 (BT474 tumor cells) [µM] | IC50 (SK-MEL-28 tumor cells) [µM] | IC50 (SK-MEL-3 tumor cells) [µM] | IC50 (HN5 tumor cells) [µM]
1 | Cc1nc(-c2cccc(NC(=O)c3c(F)cccc3F)c2)c(-c2ccnc(Nc3ccc(OC4CCNCC4)c(F)c3)n2)s1 [Example 107, 2,6-DUDuoro-N-{3-[5-(2-{[3-fluoro-4-(4-piperidinyloxy)phenyl]amino}-4-pyrimidinyl)-2-methyl-1,3-thiazol-4-yl]phenyl}benzamide] | 0.1 to 1 | 0.1 to 1 | 0.1 to 1 | < 0.1 | < 0.1 | < 0.1 | 0.1 to 1 | 0.1 to 1 | < 0.1
2 | Cc1nc(-c2cccc(NC(=O)c3ccc(F)cc3)c2)c(-c2ccnc(Nc3ccc(OCCN(C)C)c(Cl)c3)n2)s1 [Example 134, N-[3-(5-{2-[(3-Chloro-4-{[2-(dimethylamino)ethyl]oxy}phenyl)amino]-4-pyrimidinyl}-2-methyl-1,3-thiazol-4-yl)phenyl]-4-fluorobenzamide] | 0.1 to 1 | > 1 | > 1 | < 0.1 | < 0.1 | 0.1 to 1 | > 1 | > 1 | 0.1 to 1
3 | Cc1nc(-c2cccc(NC(=O)c3c(F)cccc3F)c2)c(-c2ccnc(Nc3ccc(OCCN(C)C)c(F)c3)n2)s1 [Example 105, N-[3-(5-{2-[(4-{[2-(Dimethylamino)ethyl]oxy}-3-fluorophenyl)amino]-4-pyrimidinyl}-2-methyl-1,3-thiazol-4-yl)phenyl]-2,6-difluorobenzamide] | 0.1 to 1 | 0.1 to 1 | 0.1 to 1 | < 0.1 | < 0.1 | < 0.1 | > 1 | > 1 | < 0.1
4 | O=C(Nc1cccc(-c2nc(NCCCN3CCOCC3)sc2-c2ccnc(Nc3cccc(CN4CCCC4)c3)n2)c1)c1c(F)cccc1F [Example 28, 2,6-Difluoro-N-{3-[2-{[3-(4-morpholinyl)propyl]amino}-5-(2-{[3-(1-pyrrolidinylmethyl)phenyl]amino}-4-pyrimidinyl)-1,3-thiazol-4-yl]phenyl}benzamide] | 0.1 to 1 | 0.1 to 1 | 0.1 to 1 | < 0.1 | < 0.1 | < 0.1 | 0.1 to 1 | 0.1 to 1 | 0.1 to 1
5 | CN(C)CCOc1cccc(Nc2nccc(-c3scnc3-c3cccc(NC(=O)c4c(F)cccc4F)c3)n2)c1 [Example 79, N-[3-(5-{2-[(3-{[2-(Dimethylamino)ethyl]oxy}phenyl)amino]-4-pyrimidinyl}-1,3-thiazol-4-yl)phenyl]-2,6-difluorobenzamide-formic acid] | 0.1 to 1 | 0.1 to 1 | 0.1 to 1 | < 0.1 | < 0.1 | < 0.1 | > 1 | > 1 | < 0.1

Next, values leading:

Row | IC50 (HT-29 tumor cells) [µM] | IC50 (Colo205 tumor cells) [µM] | IC50 (A375P F11s tumor cells) [µM] | IC50 (EGFR) [µM] | IC50 (ErbB2) [µM] | IC50 (BT474 tumor cells) [µM] | IC50 (SK-MEL-28 tumor cells) [µM] | IC50 (SK-MEL-3 tumor cells) [µM] | IC50 (HN5 tumor cells) [µM] | SMILES
6 | 0.1 to 1 | 0.1 to 1 | 0.1 to 1 | < 0.1 | < 0.1 | 0.1 to 1 | 0.1 to 1 | > 1 | 0.1 to 1 | CN(C)CCOc1ccc(Nc2nccc(-c3sc(N(C)C)nc3-c3cccc(NC(=O)c4c(F)cccc4F)c3)n2)cc1Cl [Example 37, N-{3-[5-{2-[(3-Chloro-4-{[2-(dimethylamino)ethyl]oxy}phenyl)amino]-4-pyrimidinyl}-2-(dimethylamino)-1,3-thiazol-4-yl]phenyl}-2,6-difluorobenzamide]
7 | 0.1 to 1 | 0.1 to 1 | 0.1 to 1 | < 0.1 | < 0.1 | 0.1 to 1 | > 1 | 0.1 to 1 | 0.1 to 1 | CN(C)CCOc1ccc(Nc2nccc(-c3sc(N4CCN(C)CC4)nc3-c3cccc(NC(=O)c4c(F)cccc4F)c3)n2)cc1Cl [Example 45, N-{3-[5-{2-[(3-Chloro-4-{[2-(dimethylamino)ethyl]oxy}phenyl)amino]-4-pyrimidinyl}-2-(4-methyl-1-piperazinyl)-1,3-thiazol-4-yl]phenyl}-2,6-difluorobenzamide]
8 | 0.1 to 1 | 0.1 to 1 | 0.1 to 1 | < 0.1 | < 0.1 | 0.1 to 1 | 0.1 to 1 | 0.1 to 1 | 0.1 to 1 | CC(C)c1nc(-c2cccc(NC(=O)c3c(F)cccc3F)c2)c(-c2ccnc(Nc3ccc(OCCN4CCCC4)c(Cl)c3)n2)s1 [Example 121, N-{3-[5-{2-[(3-chloro-4-{[2-(1-pyrrolidinyl)-ethyl]oxy}phenyl)amino]-4-pyrimidinyl}-2-(1-methylethyl)-1,3-thiazol-4-yl]phenyl}-2,6-difluorobenzamide]
9 | 0.1 to 1 | > 1 | 0.1 to 1 | < 0.1 | < 0.1 | 0.1 to 1 | > 1 | 0.1 to 1 | 0.1 to 1 | CCc1nc(-c2cccc(NC(=O)c3c(F)cccc3F)c2)c(-c2ccnc(Nc3ccc(OCCN4CCCC4)c(Cl)c3)n2)s1 [Example 113, N-[3-(5-{2-[(3-Chloro-4-{[2-(1-pwrolidinyl)ethyl]oxy}phenyl)amino]-4-pyrimidinyl}-2-ethyl-1,3-thiazol-4-yl)phenyl]-2,6-difluorobenzamide]
